In US20160281050A1, “METHODS FOR TREATING A CULTURE OF HAEMATOCOCCUS PLUVIALIS FOR CONTAMINATION USING SALT AND HYDROGEN PEROXIDE” (HELIAE DEVELOPMENT LLC, priority 2015, published 2016):

Key:
[1] = test system: Haematococcus pluvialis (Strain 2); experiment: % cell lysis and culture dry weight in flasks, salt treatment (Example 12); assay type: cell-based
Procedure: (§1) This test was done side by side in flasks (0.1 L) and in reactors located in a greenhouse operating in conditions: reactor volume of 230 L; Daily PAR of 20 mol m^−2 d^−1; pH (not measured); and paddlewheel speed of 21 RPM. […] The flask cultures were mixed by shaking at 140 rpm and received 300-400 μmol/m^2 s of photosynthetically active radiation (PAR) in 12 hour light cycles and constant supply of 2.5% CO2. The motility of the culture was monitored by visual observation under a microscope. […] Nine 230 L reactors were also seeded with culture from bioreactor #2410 on the same day as the flasks and brought to 2 ppt concentration of salt. Once motility of the cells was reduced to <10% (day 3 of culture for flasks and day 2 for 230 L reactors) the level of salt was elevated to a point between 4-18 ppt and compared to the culture in two reactors remaining at 2 ppt salt. Flasks and 230 L reactors were monitored for percentage of cell lysis via visual observation under a microscope, culture dry weight (biomass accumulation in g/L), and percentage of chytrid infection via visual observation under a microscope. Carotenoid production, a proxy for determining astaxanthin, was quantified every other day of culture in the 230 L reactors using the UV method.

[2] = test system: chytrids; experiment: % chytrid infection in 230 L reactors, salt treatment (Example 12); assay type: cell-based
Procedure: as §1

[Cl-].[Na+] [NaCl, sodium chloride]
36.67%: % Chytrid infection in 230L reactors ([2]; 4 ppt, 11 d)
1 ± 1%: % Cell Lysis in Flasks ([1]; 5 ppt, 11 d) | % Cell Lysis in Flasks ([1]; 10 ppt, 9 d) | % Cell Lysis in Flasks ([1]; 11 ppt, 11 d)
10.00%: % Chytrid infection in 230L reactors ([2]; 5 ppt, 9 d)
4 ± 3%: % Cell Lysis in Flasks ([1]; 6 ppt, 9 d)
11.67%: % Chytrid infection in 230L reactors ([2]; 4 ppt, 9 d)
3 ± 2%: % Cell Lysis in Flasks ([1]; 8 ppt, 9 d)
0 ± 0%: % Cell Lysis in Flasks ([1]; 2 ppt, 9 d) | % Cell Lysis in Flasks ([1]; 2 ppt, 11 d) | % Cell Lysis in Flasks ([1]; 4 ppt, 9 d) | % Cell Lysis in Flasks ([1]; 4 ppt, 11 d) | % Cell Lysis in Flasks ([1]; 5 ppt, 9 d) | % Cell Lysis in Flasks ([1]; 7 ppt, 9 d) | % Cell Lysis in Flasks ([1]; 9 ppt, 9 d) | % Cell Lysis in Flasks ([1]; 11 ppt, 9 d)
3 ± 1%: % Cell Lysis in Flasks ([1]; 10 ppt, 11 d)
5.00%: % Chytrid infection in 230L reactors ([2]; 6 ppt, 7 d) | % Chytrid infection in 230L reactors ([2]; 7 ppt, 7 d) | % Chytrid infection in 230L reactors ([2]; 7 ppt, 10 d)
13.33%: % Chytrid infection in 230L reactors ([2]; 5 ppt, 11 d)
below 10%: cell lysis ([1]; flasks, all treatments)
6.67%: % Chytrid infection in 230L reactors ([2]; 10 ppt, 11 d)
30.00%: % Chytrid infection in 230L reactors ([2]; 4 ppt, 10 d)
65.00%: % Chytrid infection in 230L reactors ([2]; 4 ppt, 12 d)
0.00%: % Chytrid infection in 230L reactors ([2]; 4 ppt, 2 d) | % Chytrid infection in 230L reactors ([2]; 4 ppt, 4 d) | % Chytrid infection in 230L reactors ([2]; 4 ppt, 5 d) | % Chytrid infection in 230L reactors ([2]; 4 ppt, 6 d) | % Chytrid infection in 230L reactors ([2]; 4 ppt, 8 d) | % Chytrid infection in 230L reactors ([2]; 5 ppt, 3 d) | % Chytrid infection in 230L reactors ([2]; 5 ppt, 5 d) | % Chytrid infection in 230L reactors ([2]; 5 ppt, 6 d) | % Chytrid infection in 230L reactors ([2]; 5 ppt, 8 d) | % Chytrid infection in 230L reactors ([2]; 6 ppt, 3 d) | % Chytrid infection in 230L reactors ([2]; 6 ppt, 9 d) | % Chytrid infection in 230L reactors ([2]; 6 ppt, 11 d) | % Chytrid infection in 230L reactors ([2]; 7 ppt, 3 d) | % Chytrid infection in 230L reactors ([2]; 7 ppt, 4 d) | % Chytrid infection in 230L reactors ([2]; 7 ppt, 6 d) | % Chytrid infection in 230L reactors ([2]; 7 ppt, 11 d) | % Chytrid infection in 230L reactors ([2]; 8 ppt, 2 d) | % Chytrid infection in 230L reactors ([2]; 8 ppt, 3 d) | % Chytrid infection in 230L reactors ([2]; 8 ppt, 4 d) | % Chytrid infection in 230L reactors ([2]; 8 ppt, 6 d) | % Chytrid infection in 230L reactors ([2]; 8 ppt, 7 d) | % Chytrid infection in 230L reactors ([2]; 8 ppt, 8 d) | % Chytrid infection in 230L reactors ([2]; 8 ppt, 9 d) | % Chytrid infection in 230L reactors ([2]; 10 ppt, 2 d) | % Chytrid infection in 230L reactors ([2]; 10 ppt, 3 d) | % Chytrid infection in 230L reactors ([2]; 10 ppt, 5 d) | % Chytrid infection in 230L reactors ([2]; 10 ppt, 6 d) | % Chytrid infection in 230L reactors ([2]; 10 ppt, 7 d) | % Chytrid infection in 230L reactors ([2]; 10 ppt, 8 d) | % Chytrid infection in 230L reactors ([2]; 10 ppt, 10 d) | % Chytrid infection in 230L reactors ([2]; 18 ppt, 2 d) | % Chytrid infection in 230L reactors ([2]; 18 ppt, 3 d) | % Chytrid infection in 230L reactors ([2]; 18 ppt, 4 d) | % Chytrid infection in 230L reactors ([2]; 18 ppt, 6 d) | % Chytrid infection in 230L reactors ([2]; 18 ppt, 7 d) | % Chytrid infection in 230L reactors ([2]; 18 ppt, 10 d)
2 ± 0%: % Cell Lysis in Flasks ([1]; 8 ppt, 11 d) | % Cell Lysis in Flasks ([1]; 9 ppt, 11 d)
1.67%: % Chytrid infection in 230L reactors ([2]; 4 ppt, 3 d) | % Chytrid infection in 230L reactors ([2]; 4 ppt, 7 d) | % Chytrid infection in 230L reactors ([2]; 5 ppt, 2 d) | % Chytrid infection in 230L reactors ([2]; 5 ppt, 4 d) | % Chytrid infection in 230L reactors ([2]; 6 ppt, 2 d) | % Chytrid infection in 230L reactors ([2]; 6 ppt, 4 d) | % Chytrid infection in 230L reactors ([2]; 6 ppt, 5 d) | % Chytrid infection in 230L reactors ([2]; 6 ppt, 6 d) | % Chytrid infection in 230L reactors ([2]; 6 ppt, 10 d) | % Chytrid infection in 230L reactors ([2]; 7 ppt, 5 d) | % Chytrid infection in 230L reactors ([2]; 7 ppt, 8 d) | % Chytrid infection in 230L reactors ([2]; 8 ppt, 5 d) | % Chytrid infection in 230L reactors ([2]; 8 ppt, 10 d) | % Chytrid infection in 230L reactors ([2]; 8 ppt, 11 d) | % Chytrid infection in 230L reactors ([2]; 10 ppt, 4 d) | % Chytrid infection in 230L reactors ([2]; 10 ppt, 9 d) | % Chytrid infection in 230L reactors ([2]; 18 ppt, 8 d) | % Chytrid infection in 230L reactors ([2]; 18 ppt, 11 d) | % Chytrid infection in 230L reactors ([2]; 18 ppt, 12 d)
5-10%: chytrid infection ([2]; treatments at 7 ppt and above in 230 L reactors)
8.33%: % Chytrid infection in 230L reactors ([2]; 5 ppt, 7 d)
5 ± 4%: % Cell Lysis in Flasks ([1]; 6 ppt, 11 d)
7 ± 3%: % Cell Lysis in Flasks ([1]; 7 ppt, 11 d)
3.33%: % Chytrid infection in 230L reactors ([2]; 5 ppt, 10 d) | % Chytrid infection in 230L reactors ([2]; 6 ppt, 8 d) | % Chytrid infection in 230L reactors ([2]; 7 ppt, 2 d) | % Chytrid infection in 230L reactors ([2]; 7 ppt, 9 d) | % Chytrid infection in 230L reactors ([2]; 7 ppt, 12 d) | % Chytrid infection in 230L reactors ([2]; 8 ppt, 12 d) | % Chytrid infection in 230L reactors ([2]; 10 ppt, 12 d) | % Chytrid infection in 230L reactors ([2]; 18 ppt, 5 d) | % Chytrid infection in 230L reactors ([2]; 18 ppt, 9 d)
15.00%: % Chytrid infection in 230L reactors ([2]; 6 ppt, 12 d)
28.33%: % Chytrid infection in 230L reactors ([2]; 5 ppt, 12 d)
